Experiments:
[1] = storage stability, sum of by-products and degradation products after 1 week storage; type: physicochemical; conditions: 50° C. in open flask
Excerpt: The sum of by-products and degradation products in % after 1 week storage are as follows: […]

localized GvHD = test: localized GvHD, inhibition of lymph node swelling; type: in vivo; conditions: dosage of 3 mg
Method: (§1) In the localized GvHD, maximal inhibition (70-80%) of lymph node swelling is achieved with a dosage of 3 mg with 40-O-(2-hydroxy)ethyl-rapamycin in crystalline form.

[2] = in vitro and in vivo immunosuppressive activity; conditions: crystalline form compared with amorphous form
Method: as §1

Row | sum of by-products and degradation products [1] [%] | SMILES | maximal inhibition of lymph node swelling (localized GvHD) | in vitro and in vivo immunosuppressive activity [2]
1 | >10 | CO[C@H]1C[C@@H]2CC[C@@H](C)[C@@](O)(O2)C(=O)C(=O)N2CCCC[C@H]2C(=O)O[C@H]([C@H](C)C[C@@H]2CC[C@@H](OCCO)[C@H](OC)C2)CC(=O)[C@H](C)/C=C(\C)[C@@H](O)[C@@H](OC)C(=O)[C@H](C)C[C@H](C)/C=C/C=C/C=C/1C [Without BHT, 40-O-(2-hydroxy)ethyl-rapamycin] |  | 
2 |  | CO[C@H]1C[C@@H]2CC[C@@H](C)[C@@](O)(O2)C(=O)C(=O)N2CCCC[C@H]2C(=O)O[C@H]([C@H](C)C[C@@H]2CC[C@@H](OCCO)[C@H](OC)C2)CC(=O)[C@H](C)/C=C(\C)[C@@H](O)[C@@H](OC)C(=O)[C@H](C)C[C@H](C)/C=C/C=C/C=C/1C [40-O-(2-hydroxy)ethyl-rapamycin] | 70-80% | comparable to that of the amorphous form
